Assay results: patent US7442715B2, “Thiazole derivatives” (Astellas Pharma Inc., priority 2003, dated 2008)
Where a name gives a salt, the structure may show the parent alone.

Tests used:
Human plasma SSAO = target: T1, Human plasma SSAO (Homo sapiens, UniProt Q16853); assay: VAP-1 enzyme (SSAO) activity in human plasma, radiochemical-enzyme assay with 14C-benzylamine; type: biochemical
T1 construct: The enzyme suspension prepared from blood plasma was pre-incubated with Compound A; from tissue; host or cells: human blood plasma
T1 sequence (Q16853 29-763 limits assumed): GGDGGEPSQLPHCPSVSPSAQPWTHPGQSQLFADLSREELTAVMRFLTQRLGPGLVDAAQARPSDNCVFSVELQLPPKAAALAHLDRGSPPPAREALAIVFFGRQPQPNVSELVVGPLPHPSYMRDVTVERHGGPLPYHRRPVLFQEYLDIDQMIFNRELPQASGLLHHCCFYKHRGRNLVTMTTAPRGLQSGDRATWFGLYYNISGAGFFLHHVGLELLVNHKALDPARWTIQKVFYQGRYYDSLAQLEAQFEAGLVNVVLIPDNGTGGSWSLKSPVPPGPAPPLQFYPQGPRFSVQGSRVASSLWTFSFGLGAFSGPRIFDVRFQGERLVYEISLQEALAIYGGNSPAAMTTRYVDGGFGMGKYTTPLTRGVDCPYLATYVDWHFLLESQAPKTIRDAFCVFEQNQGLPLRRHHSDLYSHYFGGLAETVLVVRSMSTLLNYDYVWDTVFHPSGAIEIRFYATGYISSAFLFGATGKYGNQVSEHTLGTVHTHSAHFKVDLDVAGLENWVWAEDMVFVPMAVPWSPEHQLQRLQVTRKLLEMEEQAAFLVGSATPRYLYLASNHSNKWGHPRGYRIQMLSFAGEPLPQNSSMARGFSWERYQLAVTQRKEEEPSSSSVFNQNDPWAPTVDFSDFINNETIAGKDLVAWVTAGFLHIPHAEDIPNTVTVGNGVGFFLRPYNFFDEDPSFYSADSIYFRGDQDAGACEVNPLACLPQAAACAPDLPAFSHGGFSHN
Experimental: (§1) VAP-1 enzyme (SSAO) activity in both human and rat plasma was determined by a radiochemical-enzyme assay using ^14C-benzylamine as artificial substrate. The enzyme suspension prepared from blood plasma was pre-incubated with Compound A in 96-well microplate at room temperature for 30 min. The enzyme suspension was then incubated with ^14C-benzylamine (2×10^−5 mol/l final concentration) in a final volume of 50 μl at 37° C. for 1 hour. The enzyme reaction was terminated by adding 2 mol/l (50 μl) citric acid. The oxidized products were directly extracted into a 200 μl toluene scintillator, and its radioactivity was measured by a scintillation spectrometer. Monoamine oxidase (MAO) and diamine oxidase (DAO, histaminase) activities were also determined by similar method using ^14C-phenylethylamine and ^14C-putrescine as substrate, respectively. Cloned DAO from cDNA libraries was used in human DAO assay. Inhibition activity was expressed as IC50 (μmol/l) value.

Rat plasma SSAO = target: T2, Rat plasma SSAO (Rattus norvegicus, UniProt O08590); assay: VAP-1 enzyme (SSAO) activity in rat plasma, radiochemical-enzyme assay with 14C-benzylamine; type: biochemical
T2 construct: The enzyme suspension prepared from blood plasma was pre-incubated with Compound A; from tissue; host or cells: rat blood plasma
T2 sequence (O08590 29-763 limits assumed): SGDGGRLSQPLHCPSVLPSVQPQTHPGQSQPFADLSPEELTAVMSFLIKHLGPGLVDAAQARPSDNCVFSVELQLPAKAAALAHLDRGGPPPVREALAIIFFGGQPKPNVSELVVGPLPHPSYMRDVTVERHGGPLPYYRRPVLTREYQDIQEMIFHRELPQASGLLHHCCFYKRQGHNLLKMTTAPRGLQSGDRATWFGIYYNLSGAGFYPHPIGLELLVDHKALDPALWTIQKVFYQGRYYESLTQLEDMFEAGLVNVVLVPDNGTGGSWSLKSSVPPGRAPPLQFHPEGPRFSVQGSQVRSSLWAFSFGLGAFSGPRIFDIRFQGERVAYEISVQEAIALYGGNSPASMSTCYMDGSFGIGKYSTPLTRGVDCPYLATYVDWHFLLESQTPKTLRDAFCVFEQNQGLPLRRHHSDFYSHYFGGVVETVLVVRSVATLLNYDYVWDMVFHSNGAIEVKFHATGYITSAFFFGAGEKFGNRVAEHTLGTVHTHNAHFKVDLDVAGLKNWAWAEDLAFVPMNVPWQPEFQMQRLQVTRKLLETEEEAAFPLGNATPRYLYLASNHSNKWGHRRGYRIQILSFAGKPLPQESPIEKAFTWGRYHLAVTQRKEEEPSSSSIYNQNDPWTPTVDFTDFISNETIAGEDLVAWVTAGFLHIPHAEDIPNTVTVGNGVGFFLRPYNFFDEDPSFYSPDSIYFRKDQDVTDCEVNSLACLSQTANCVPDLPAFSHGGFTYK
Experimental: as §1

plasma SSAO = target: T3, plasma SSAO (Rattus norvegicus, UniProt O08590); assay: Plasma SSAO activity in STZ-induced diabetic rats after treatment; type: in vivo
T3 construct: from tissue; host or cells: plasma of STZ-induced diabetic rats
T3 sequence (O08590 29-763 limits assumed): T2 sequence (O08590 29-763 limits assumed)
Experimental: Diabetes in rat was induced with an intraperitoneal (i.p.) injection of 65 mg/ml/kg of streptozotocin (STZ) in 2 mmol/l citrate buffer (pH 4.5) after a 20-h fast. At the same time control rat were injected with an equal volume of 2 mmol/l citrate buffer. Plasma glucose level was checked by a calorimetric method. At day 3 of STZ treatment, the rat was diagnosed with diabetes showing a plasma glucose level of 350 mg/dl.
The treatment of Compound A was given daily from 2 weeks after STZ treatment for 2 weeks. At 24 hrs after final treatment of Compound A, the vascular permeability in oculus was investigated based on the leakage of dye into the vitreous 30 min after intravenous injection of fluorescein solution (40 mg/ml/kg). Permeability was expressed as vitreous/plasma ratio of fluorescein concentration measured by a fluorophotometer. At the same time, the plasma SSAO activity was checked by the radiochemical-enzyme assay using ^14C-benzylamine (2×10^−5 mol/l final concentration) as substrate.

| melting point [°C] | Structure (SMILES) | further results |
| --- | --- | --- |
| 138 to 140 | CC(=O)Nc1nc(CCc2ccc(NC(=N)N)cc2)c(C(=O)NCc2ccc([N+](=O)[O-])cc2)s1.Cl |  |
| 229.5 to 231 | CC(=O)Nc1nc(CCc2ccc(C(=N)N)cc2)cs1.Cl |  |
| 190.5 to 192 | CC(=O)Nc1nc(CCc2ccc(CC(=N)N)cc2)cs1 (as salt: hydrochloride) [Production Example 59, N-(4-{2-[4-(2-amino-2-iminoethyl)phenyl]ethyl}-1,3-thiazol-2-yl)acetamide] |  |
|  | CC(=O)Nc1nc(CCc2ccc(NC(=N)N)cc2)cs1 [Compound A, N-{4-[2-(4-{[amino(imino)methyl]amino}phenyl)ethyl]-1,3-thiazol-2-yl}acetamide] | Inhibition of enzyme activity of human plasma SSAO (in words) (Human plasma SSAO): completely inhibited; Inhibition of enzyme activity of rat plasma SSAO (in words) (Rat plasma SSAO): completely inhibited; Plasma SSAO activity (plasma SSAO; STZ diabetic rats, daily treatment for 2 weeks from 2 weeks after STZ, 14C-benzylamine 2×10^−5 mol/l, mean±S.E.M., 10 rats): 2.51 ± 0.26 pmol/min/mL; Effect on increased plasma SSAO activity in diabetic rats (in words) (plasma SSAO; diabetic rats at 4 weeks after STZ treatment): dose-dependent inhibition of the increased plasma SSAO activity |
| 218 to 219.5 | CC(=O)Nc1nc(CCc2ccc(NC3=NCCS3)cc2)cs1 [Production Example 2, N-(4-(2-(4-(4,5-dihydro-1,3-thiazol-2-ylamino)phenyl)ethyl)-1,3-thiazol-2-yl)acetamide] |  |
| 130 to 130.5 | CC(=O)Nc1nc(CCc2ccc(CON)cc2)cs1 [Production Example 16, N-[4-(2-{4-[(aminooxy)methyl]phenyl}ethyl)-1,3-thiazol-2-yl]acetamide] |  |
| 228 to 229.5 | CC(=O)Nc1nc(CCc2ccc(NC(=N)N)cc2)c(Cc2ccc(S(C)(=O)=O)cc2)s1 [Production Example 48, N-{4-[2-(4-{[amino(imino)methyl]amino}phenyl)ethyl]-5-[4-(methylsulfonyl)benzyl]-1,3-thiazol-2-yl}acetamide] |  |
| 81.5 to 83 | CC(=N)Nc1ccc(CCc2nc(NC(C)=O)sc2Cc2ccc(S(C)(=O)=O)cc2)cc1 [Production Example 56, N-{4-{2-[4-(ethanimidoylamino)phenyl]ethyl}-5-[4-(methylsulfonyl)benzyl]-1,3-thiazol-2-yl}acetamide] |  |
| 216.5 to 218 | CC(=O)Nc1nc(CCc2ccc(NC(=N)NN)cc2)cs1 [Production Example 58, N-{4-[2-(4-{[hydrazino(imino)methyl]amino}phenyl)ethyl]-1,3-thiazol-2-yl}acetamide] |  |
| 108 to 109.5 | CC(=O)Nc1nc(CCc2ccc(C(=O)NC(=N)N)cc2)c(Cc2ccc(S(C)(=O)=O)cc2)s1 [Production Example 106, 4-(2-{2-(acetylamino)-5-[4-(methylsulfonyl)benzyl]-1,3-thiazol-4-yl}ethyl)-N-[amino(imino)methyl]benzamide] |  |
